According to the NIST ThermoML archive (doi:10.1016/j.jct.2015.05.006):

Columns and labels:
[1] = xn = mol fraction of the nth substance listed; details: Liquid, Vibrating tube method
[2] = relative permittivity at various frequencies (dimensionless); xn = mol fraction of the nth substance listed; details: Liquid, Frequency=1 MHz, Parallel plate capacitor

COCCOC [1,2-dimethoxyethane] + CCCCCC
95.2 kPa
Details	mass density, [1] [kg/m3]	relative permittivity, [2]
288.15 K, x2 = 0	872.06	7.41
288.15 K, x2 = 0.0501	857.87	–
288.15 K, x2 = 0.0513	–	6.89
288.15 K, x2 = 0.0904	–	6.46
288.15 K, x2 = 0.1049	842.87	–
288.15 K, x2 = 0.1999	–	5.58
288.15 K, x2 = 0.2992	–	4.85
288.15 K, x2 = 0.2999	794.19	–
288.15 K, x2 = 0.4004	–	4.19
288.15 K, x2 = 0.4059	770.33	–
288.15 K, x2 = 0.4961	751.31	–
288.15 K, x2 = 0.4983	–	3.65
288.15 K, x2 = 0.6001	–	3.17
288.15 K, x2 = 0.6054	729.6	–
288.15 K, x2 = 0.694	713.16	–
288.15 K, x2 = 0.7004	–	2.77
288.15 K, x2 = 0.7916	696.41	–
288.15 K, x2 = 0.8057	–	2.41
288.15 K, x2 = 0.9022	–	2.14
288.15 K, x2 = 0.9035	678.43	–
288.15 K, x2 = 0.9509	–	2.02
288.15 K, x2 = 0.9533	670.87	–
298.15 K, x2 = 0	861.17	7.07
298.15 K, x2 = 0.0459	–	6.61
298.15 K, x2 = 0.0495	846.99	–
298.15 K, x2 = 0.0955	–	6.19
298.15 K, x2 = 0.1011	833.13	–
298.15 K, x2 = 0.2009	807.1	–
298.15 K, x2 = 0.2013	–	5.36
298.15 K, x2 = 0.2992	–	4.67
298.15 K, x2 = 0.3031	782.87	–
298.15 K, x2 = 0.398	–	4.07
298.15 K, x2 = 0.4027	760.92	–
298.15 K, x2 = 0.4977	740.86	–
298.15 K, x2 = 0.4984	–	3.53
298.15 K, x2 = 0.5959	721.71	–
298.15 K, x2 = 0.6014	–	3.08
298.15 K, x2 = 0.6972	703.06	–
298.15 K, x2 = 0.7019	–	2.7
298.15 K, x2 = 0.8016	–	2.38
298.15 K, x2 = 0.8051	684.57	–
298.15 K, x2 = 0.8985	670	–
298.15 K, x2 = 0.9031	–	2.11
298.15 K, x2 = 0.9477	–	2.01
308.15 K, x2 = 0	850.13	6.75
308.15 K, x2 = 0.0457	837.34	–
308.15 K, x2 = 0.0494	–	6.3
308.15 K, x2 = 0.0927	824.63	–
308.15 K, x2 = 0.0967	–	5.9
308.15 K, x2 = 0.1938	–	5.18
308.15 K, x2 = 0.2001	797.09	–
308.15 K, x2 = 0.2984	773.76	–
308.15 K, x2 = 0.3011	–	4.47
308.15 K, x2 = 0.3939	752.46	–
308.15 K, x2 = 0.4025	–	3.91
308.15 K, x2 = 0.4989	–	3.44
308.15 K, x2 = 0.5082	728.75	–
308.15 K, x2 = 0.5955	711.88	–
308.15 K, x2 = 0.6018	–	3
308.15 K, x2 = 0.6927	694.24	–
308.15 K, x2 = 0.699	–	2.66
308.15 K, x2 = 0.7982	–	2.36
308.15 K, x2 = 0.8036	675.37	–
308.15 K, x2 = 0.901	–	2.09
308.15 K, x2 = 0.9023	660.16	–
308.15 K, x2 = 0.9506	–	1.99
308.15 K, x2 = 0.9509	653.01	–

COCCOC [1,2-dimethoxyethane] + C1CCCCC1
96.6 kPa
Details	mass density, [1] [kg/m3]	relative permittivity, [2]
288.15 K, x2 = 0	872.06	7.41
288.15 K, x2 = 0.0459	–	7.02
288.15 K, x2 = 0.0497	865.63	–
288.15 K, x2 = 0.1021	859.14	–
288.15 K, x2 = 0.1034	–	6.56
288.15 K, x2 = 0.1974	847.96	–
288.15 K, x2 = 0.2009	–	5.84
288.15 K, x2 = 0.3013	–	5.17
288.15 K, x2 = 0.3031	836.42	–
288.15 K, x2 = 0.4026	826.35	–
288.15 K, x2 = 0.4027	–	4.55
288.15 K, x2 = 0.4967	817.52	–
288.15 K, x2 = 0.5031	–	3.99
288.15 K, x2 = 0.5998	808.62	3.51
288.15 K, x2 = 0.6961	801.06	–
288.15 K, x2 = 0.7015	–	3.06
288.15 K, x2 = 0.7953	–	2.69
288.15 K, x2 = 0.8006	793.78	–
288.15 K, x2 = 0.9017	–	2.33
288.15 K, x2 = 0.9033	787.7	–
288.15 K, x2 = 0.9494	–	2.19
288.15 K, x2 = 0.9514	785.33	–
298.15 K, x2 = 0	861.17	7.07
298.15 K, x2 = 0.0446	855.02	–
298.15 K, x2 = 0.0475	–	6.7
298.15 K, x2 = 0.0978	848.89	–
298.15 K, x2 = 0.098	–	6.31
298.15 K, x2 = 0.1963	837.39	–
298.15 K, x2 = 0.2057	–	5.58
298.15 K, x2 = 0.3034	–	4.96
298.15 K, x2 = 0.3038	825.79	–
298.15 K, x2 = 0.3952	–	4.43
298.15 K, x2 = 0.4024	815.96	–
298.15 K, x2 = 0.5013	806.83	–
298.15 K, x2 = 0.5077	–	3.84
298.15 K, x2 = 0.6014	–	3.41
298.15 K, x2 = 0.6054	798.09	–
298.15 K, x2 = 0.7018	790.78	–
298.15 K, x2 = 0.7093	–	2.96
298.15 K, x2 = 0.7994	–	2.63
298.15 K, x2 = 0.8023	784.01	–
298.15 K, x2 = 0.8965	778.59	–
298.15 K, x2 = 0.9016	–	2.3
298.15 K, x2 = 0.9498	776	–
298.15 K, x2 = 0.952	–	2.16
308.15 K, x2 = 0	850.13	6.75
308.15 K, x2 = 0.0454	844.13	–
308.15 K, x2 = 0.0456	–	6.42
308.15 K, x2 = 0.0969	838.11	–
308.15 K, x2 = 0.0976	–	6.05
308.15 K, x2 = 0.1954	826.9	–
308.15 K, x2 = 0.1983	–	5.41
308.15 K, x2 = 0.299	–	4.83
308.15 K, x2 = 0.2993	815.83	–
308.15 K, x2 = 0.3959	–	4.29
308.15 K, x2 = 0.4037	805.56	–
308.15 K, x2 = 0.4993	–	3.77
308.15 K, x2 = 0.5042	796.44	–
308.15 K, x2 = 0.6002	–	3.32
308.15 K, x2 = 0.6072	787.93	–
308.15 K, x2 = 0.6995	781.05	–
308.15 K, x2 = 0.7005	–	2.93
308.15 K, x2 = 0.8004	774.34	–
308.15 K, x2 = 0.8012	–	2.58
308.15 K, x2 = 0.902	–	2.27
308.15 K, x2 = 0.904	768.62	–
308.15 K, x2 = 0.9514	–	2.14
308.15 K, x2 = 0.9535	766.31	–
